Measurements taken from patent publication US12552775B2, “Compounds and uses thereof” (Foghorn Therapeutics Inc., priority 2020, dated 2026).

Experiments:
HiBit-BRM fusion protein = target: T1, HiBit-BRM fusion protein (Homo sapiens, UniProt P51531); test: HiBiT-BRM cell-based degradation assay (Nano-Glo HiBiT Lytic Detection, 24 h); conditions: stable HeLa cell line expressing HiBiT-BRM, top dose 30 μM
T1 construct: expressed in transfected cells
Summary of the method: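 Stable HiBiT-BRM HeLa cells were treated with 10-point 3-fold serial dilutions (30 μM final top dose, duplicate) for 24 h, then lysed with LgBiT-containing detection reagent and luminescence read. Degradation % was normalised to DMSO (high control) and 2 μM reference BRM/BRG1 degrader (low control).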

[1] = target: T2, HiBit-BRG1 fusion protein (Homo sapiens, UniProt P51532); test: HiBiT-BRG1 cell-based degradation assay (Nano-Glo HiBiT Lytic Detection, 24 h); conditions: stable HeLa cell line expressing HiBit-BRG1 and LgBit, top dose 30 μM, read-out: BRG1 HiBit Degradation Maximum (%)
T2 construct: expressed in transfected cells
Summary of the method: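 HeLa cells stably expressing HiBiT-BRG1 plus LgBiT were treated with 10-point 3-fold compound dilutions (top 30 μM final) for 24 h. Lytic Nano-Glo HiBiT luminescence was read. % degradation was normalised between DMSO (high control) and 2 μM of a reference BRM/BRG1 degrader (low control).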

T1 sequence (P51531 whole entry, the tested form may be a part): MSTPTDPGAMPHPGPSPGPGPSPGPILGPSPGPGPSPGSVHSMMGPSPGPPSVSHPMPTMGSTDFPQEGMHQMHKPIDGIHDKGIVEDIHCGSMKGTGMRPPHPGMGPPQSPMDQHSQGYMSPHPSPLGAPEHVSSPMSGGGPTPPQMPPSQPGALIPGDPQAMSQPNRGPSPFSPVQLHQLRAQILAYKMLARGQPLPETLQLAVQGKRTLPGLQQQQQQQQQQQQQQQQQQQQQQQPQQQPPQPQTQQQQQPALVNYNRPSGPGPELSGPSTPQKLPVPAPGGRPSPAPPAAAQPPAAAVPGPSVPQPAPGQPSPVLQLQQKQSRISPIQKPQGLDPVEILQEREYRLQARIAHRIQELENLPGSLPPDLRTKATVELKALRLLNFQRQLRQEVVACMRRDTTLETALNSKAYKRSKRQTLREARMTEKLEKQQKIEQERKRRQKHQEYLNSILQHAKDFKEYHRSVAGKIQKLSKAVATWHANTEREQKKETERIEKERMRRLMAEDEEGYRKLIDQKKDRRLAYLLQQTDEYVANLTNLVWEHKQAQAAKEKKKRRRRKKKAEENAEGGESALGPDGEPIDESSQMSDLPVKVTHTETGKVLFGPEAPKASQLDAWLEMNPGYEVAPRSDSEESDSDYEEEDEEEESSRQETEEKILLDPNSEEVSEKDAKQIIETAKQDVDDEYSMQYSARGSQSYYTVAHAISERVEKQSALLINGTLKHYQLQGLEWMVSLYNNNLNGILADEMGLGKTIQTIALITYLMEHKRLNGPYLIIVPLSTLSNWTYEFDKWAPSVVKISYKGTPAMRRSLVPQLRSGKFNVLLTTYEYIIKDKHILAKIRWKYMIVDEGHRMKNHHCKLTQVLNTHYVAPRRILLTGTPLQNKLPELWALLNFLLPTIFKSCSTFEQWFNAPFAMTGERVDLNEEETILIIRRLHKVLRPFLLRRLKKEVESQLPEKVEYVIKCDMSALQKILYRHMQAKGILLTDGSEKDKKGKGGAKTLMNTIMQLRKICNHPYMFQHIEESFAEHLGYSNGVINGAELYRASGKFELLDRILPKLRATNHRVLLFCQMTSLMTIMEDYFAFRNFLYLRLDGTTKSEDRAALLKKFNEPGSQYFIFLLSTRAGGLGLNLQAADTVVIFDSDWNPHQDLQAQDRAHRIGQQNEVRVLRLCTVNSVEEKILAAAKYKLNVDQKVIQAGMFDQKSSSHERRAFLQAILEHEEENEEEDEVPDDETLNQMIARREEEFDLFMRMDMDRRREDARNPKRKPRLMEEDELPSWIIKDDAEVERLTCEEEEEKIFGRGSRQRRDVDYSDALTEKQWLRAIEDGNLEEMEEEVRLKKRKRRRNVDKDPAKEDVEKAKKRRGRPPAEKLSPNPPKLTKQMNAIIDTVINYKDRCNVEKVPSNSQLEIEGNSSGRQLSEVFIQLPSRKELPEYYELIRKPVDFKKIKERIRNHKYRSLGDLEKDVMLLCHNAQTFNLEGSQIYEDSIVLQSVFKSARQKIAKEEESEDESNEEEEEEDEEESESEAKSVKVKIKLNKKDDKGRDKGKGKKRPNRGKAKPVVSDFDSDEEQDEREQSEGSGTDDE
T2 sequence (P51532 whole entry, the tested form may be a part): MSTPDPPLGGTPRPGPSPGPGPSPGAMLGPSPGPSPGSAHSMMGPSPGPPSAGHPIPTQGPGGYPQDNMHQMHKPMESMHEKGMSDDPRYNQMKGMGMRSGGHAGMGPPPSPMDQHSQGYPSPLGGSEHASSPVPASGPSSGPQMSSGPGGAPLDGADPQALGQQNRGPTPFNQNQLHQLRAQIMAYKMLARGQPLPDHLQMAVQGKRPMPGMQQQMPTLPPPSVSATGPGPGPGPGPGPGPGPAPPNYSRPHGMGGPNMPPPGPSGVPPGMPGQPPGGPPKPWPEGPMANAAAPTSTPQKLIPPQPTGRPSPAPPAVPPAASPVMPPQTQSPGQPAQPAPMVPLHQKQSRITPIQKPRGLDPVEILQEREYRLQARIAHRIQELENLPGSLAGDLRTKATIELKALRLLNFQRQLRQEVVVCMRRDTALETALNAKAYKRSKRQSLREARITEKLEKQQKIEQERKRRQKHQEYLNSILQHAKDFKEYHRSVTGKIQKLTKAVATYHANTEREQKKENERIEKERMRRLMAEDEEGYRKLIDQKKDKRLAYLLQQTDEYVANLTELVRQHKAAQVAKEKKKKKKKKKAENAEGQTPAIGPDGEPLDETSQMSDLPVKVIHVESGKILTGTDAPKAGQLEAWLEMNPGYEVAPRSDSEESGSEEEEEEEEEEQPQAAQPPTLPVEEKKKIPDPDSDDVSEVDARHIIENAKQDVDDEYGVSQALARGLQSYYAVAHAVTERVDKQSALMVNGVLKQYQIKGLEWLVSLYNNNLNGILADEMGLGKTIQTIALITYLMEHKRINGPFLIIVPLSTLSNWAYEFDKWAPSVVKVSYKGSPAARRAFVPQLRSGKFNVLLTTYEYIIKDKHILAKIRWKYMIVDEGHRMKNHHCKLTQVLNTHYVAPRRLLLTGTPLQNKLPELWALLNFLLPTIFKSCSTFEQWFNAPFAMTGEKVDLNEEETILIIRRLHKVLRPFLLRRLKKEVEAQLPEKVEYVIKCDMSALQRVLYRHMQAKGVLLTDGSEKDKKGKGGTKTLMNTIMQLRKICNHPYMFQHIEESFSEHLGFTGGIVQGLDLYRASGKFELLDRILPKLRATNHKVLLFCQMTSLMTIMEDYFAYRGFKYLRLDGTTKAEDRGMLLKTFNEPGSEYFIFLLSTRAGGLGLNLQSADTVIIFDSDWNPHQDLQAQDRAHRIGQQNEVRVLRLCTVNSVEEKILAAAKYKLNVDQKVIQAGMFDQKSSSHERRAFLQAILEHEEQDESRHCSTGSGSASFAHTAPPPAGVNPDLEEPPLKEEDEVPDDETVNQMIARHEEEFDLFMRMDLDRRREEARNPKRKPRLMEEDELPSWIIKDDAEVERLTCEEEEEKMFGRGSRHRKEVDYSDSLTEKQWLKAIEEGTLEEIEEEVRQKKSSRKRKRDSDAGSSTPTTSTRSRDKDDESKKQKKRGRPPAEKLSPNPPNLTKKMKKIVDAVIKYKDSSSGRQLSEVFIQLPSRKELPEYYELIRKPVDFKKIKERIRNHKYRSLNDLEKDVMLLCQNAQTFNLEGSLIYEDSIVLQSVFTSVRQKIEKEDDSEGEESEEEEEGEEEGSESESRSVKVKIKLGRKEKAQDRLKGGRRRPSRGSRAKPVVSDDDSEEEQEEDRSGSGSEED

SMILES	Dmax [1] [%]	BRM HiBit Degradation Maximum (%) (HiBit-BRM fusion protein)
Cc1ncsc1-c1ccc(CNC(=O)[C@@H]2C[C@@H](O)CN2C(=O)[C@@H](NC(=O)CCCC(=O)NC23CC(CCOc4cc(-c5ccccc5O)nnc4N)(C2)C3)C(C)(C)C)cc1 [Compound 46, N1-(3-(2-((3-amino-6-(2-hydroxyphenyl)pyridazin-4-yl)oxy)ethyl)bicyclo[1.1.1]pentan-1-yl)-N5-((S)-1-((2S,4R)-4-hydroxy-2-((4-(4-methylthiazol-5-yl)benzyl)carbamoyl)pyrrolidin-1-yl)-3,3-dimethyl-1-oxobutan-2-yl)glutaramide]	< 50	B (“B” indicates maximum degradation ≥ 50%)
Cc1ncsc1-c1ccc(CNC(=O)[C@@H]2C[C@@H](O)CN2C(=O)[C@@H](NC(=O)CCCCCCCCCCC(=O)NC23CC(CCOc4cc(-c5ccccc5O)nnc4N)(C2)C3)C(C)(C)C)cc1 [Compound 47, N1-(3-(2-((3-amino-6-(2-hydroxyphenyl)pyridazin-4-yl)oxy)ethyl)bicyclo[1.1.1]pentan-1-yl)-N12-((S)-1-((2S,4R)-4-hydroxy-2-((4-(4-methylthiazol-5-yl)benzyl)carbamoyl)pyrrolidin-1-yl)-3,3-dimethyl-1-oxobutan-2-yl)dodecanediamide]	< 50	B (“B” indicates maximum degradation ≥ 50%)
Cc1ncsc1-c1ccc(CNC(=O)[C@@H]2C[C@@H](O)CN2C(=O)[C@@H](NC(=O)CCCCCCCCCC(=O)NC23CC(CCOc4cc(-c5ccccc5O)nnc4N)(C2)C3)C(C)(C)C)cc1 [Compound 48, N1-(3-(2-((3-amino-6-(2-hydroxyphenyl)pyridazin-4-yl)oxy)ethyl)bicyclo[1.1.1]pentan-1-yl)-N11-((S)-1-((2S,4R)-4-hydroxy-2-((4-(4-methylthiazol-5-yl)benzyl)carbamoyl)pyrrolidin-1-yl)-3,3-dimethyl-1-oxobutan-2-yl)undecanediamide; formic acid]	> 50	B (“B” indicates maximum degradation ≥ 50%)
Cc1ncsc1-c1ccc(CNC(=O)[C@@H]2C[C@@H](O)CN2C(=O)[C@@H](NC(=O)CCCCCCCCCCCCC(=O)NC23CC(CCOc4cc(-c5ccccc5O)nnc4N)(C2)C3)C(C)(C)C)cc1 [Compound 49, N1-(3-(2-((3-amino-6-(2-hydroxyphenyl)pyridazin-4-yl)oxy)ethyl)bicyclo[1.1.1]pentan-1-yl)-N14-((S)-1-((2S,4R)-4-hydroxy-2-((4-(4-methylthiazol-5-yl)benzyl)carbamoyl)pyrrolidin-1-yl)-3,3-dimethyl-1-oxobutan-2-yl)tetradecanediamide]	< 50	C (“C” indicates maximum degradation < 50%)
Cc1ncsc1-c1ccc(CNC(=O)[C@@H]2C[C@@H](O)CN2C(=O)[C@@H](NC(=O)CCCCCCCCCCCCCCC(=O)NC23CC(CCOc4cc(-c5ccccc5O)nnc4N)(C2)C3)C(C)(C)C)cc1 [Compound 50, N1-(3-(2-((3-amino-6-(2-hydroxyphenyl)pyridazin-4-yl)oxy)ethyl)bicyclo[1.1.1]pentan-1-yl)-N16-((S)-1-((2S,4R)-4-hydroxy-2-((4-(4-methylthiazol-5-yl)benzyl)carbamoyl)pyrrolidin-1-yl)-3,3-dimethyl-1-oxobutan-2-yl)hexadecanediamide; formic acid]	< 50	B (“B” indicates maximum degradation ≥ 50%)
Nc1nnc(-c2ccccc2O)cc1OCC12CC(C(=O)N3CCN(CCCC#Cc4ccc5c(c4)C(=O)N(C4CCC(=O)NC4=O)C5=O)CC3)(C1)C2 (stereo not shown) [Compound 51, 5-(5-(4-(3-(((3-amino-6-(2-hydroxyphenyl)pyridazin-4-yl)oxy)methyl)bicyclo[1.1.1]pentane-1-carbonyl)piperazin-1-yl)pent-1-yn-1-yl)-2-(2,6-dioxopiperidin-3-yl)isoindoline-1,3-dione]	< 50	C (“C” indicates maximum degradation < 50%)
Nc1nnc(-c2ccccc2O)cc1OCC12CC(C(=O)N3CCN(CCCOCC#Cc4ccc5c(c4)C(=O)N(C4CCC(=O)NC4=O)C5=O)CC3)(C1)C2 (stereo not shown) [Compound 52, 5-(3-(3-(4-(3-(((3-amino-6-(2-hydroxyphenyl)pyridazin-4-yl)oxy)methyl)bicyclo[1.1.1]pentane-1-carbonyl)piperazin-1-yl)propoxy)prop-1-yn-1-yl)-2-(2,6-dioxopiperidin-3-yl)isoindoline-1,3-dione]	< 50	C (“C” indicates maximum degradation < 50%)
Nc1nnc(-c2ccccc2O)cc1OCC12CC(C(=O)N3CCC4(CC3)CC(Oc3ccc5c(c3)C(=O)N(C3CCC(=O)NC3=O)C5=O)C4)(C1)C2 (stereo not shown) [Compound 53, 5-((7-(3-(((3-amino-6-(2-hydroxyphenyl)pyridazin-4-yl)oxy)methyl)bicyclo[1.1.1]pentane-1-carbonyl)-7-azaspiro[3.5]nonan-2-yl)oxy)-2-(2,6-dioxopiperidin-3-yl)isoindoline-1,3-dione]	< 50	C (“C” indicates maximum degradation < 50%)

Continued, in another order:

Dmax [1] [%]	SMILES	BRM HiBit Degradation Maximum (%) (HiBit-BRM fusion protein)
< 50	Nc1nnc(-c2ccccc2O)cc1OCC12CC(C(=O)N3CCN(c4ccc5c(c4)C(=O)N(C4CCC(=O)NC4=O)C5=O)CC3)(C1)C2 (stereo not shown) [Compound 54, 5-(4-(3-(((3-amino-6-(2-hydroxyphenyl)pyridazin-4-yl)oxy)methyl)bicyclo[1.1.1]pentane-1-carbonyl)piperazin-1-yl)-2-(2,6-dioxopiperidin-3-yl)isoindoline-1,3-dione]	C (“C” indicates maximum degradation < 50%)
< 50	Nc1nnc(-c2ccccc2O)cc1OCC12CC(C(=O)NCCOc3ccc4c(c3)C(=O)N(C3CCC(=O)NC3=O)C4=O)(C1)C2 (stereo not shown) [Compound 55, 3-(((3-amino-6-(2-hydroxyphenyl)pyridazin-4-yl)oxy)methyl)-N-(2-((2-(2,6-dioxopiperidin-3-yl)-1,3-dioxoisoindolin-5-yl)oxy)ethyl)bicyclo[1.1.1]pentane-1-carboxamide]	C (“C” indicates maximum degradation < 50%)
< 50	Nc1nnc(-c2ccccc2O)cc1OCC12CC(C(=O)NCCNc3ccc4c(c3)C(=O)N(C3CCC(=O)NC3=O)C4=O)(C1)C2 (stereo not shown) [Compound 56, 3-(((3-amino-6-(2-hydroxyphenyl)pyridazin-4-yl)oxy)methyl)-N-(2-((2-(2,6-dioxopiperidin-3-yl)-1,3-dioxoisoindolin-5-yl)amino)ethyl)bicyclo[1.1.1]pentane-1-carboxamide]	C (“C” indicates maximum degradation < 50%)
< 50	Nc1nnc(-c2ccccc2O)cc1OCC12CC(C(=O)NCCCCCCCCNc3cccc4c3C(=O)N(C3CCC(=O)NC3=O)C4=O)(C1)C2 (stereo not shown) [Compound 57, 3-(((3-amino-6-(2-hydroxyphenyl)pyridazin-4-yl)oxy)methyl)-N-(8-((2-(2,6-dioxopiperidin-3-yl)-1,3-dioxoisoindolin-4-yl)amino)octyl)bicyclo[1.1.1]pentane-1-carboxamide]	C (“C” indicates maximum degradation < 50%)
< 50	Nc1nnc(-c2ccccc2O)cc1OCC12CC(C(=O)NCCCCCCCCNc3cccc4c3CN(C3CCC(=O)NC3=O)C4=O)(C1)C2 (stereo not shown) [Compound 58, 3-(((3-amino-6-(2-hydroxyphenyl)pyridazin-4-yl)oxy)methyl)-N-(8-((2-(2,6-dioxopiperidin-3-yl)-1-oxoisoindolin-4-yl)amino)octyl)bicyclo[1.1.1]pentane-1-carboxamide]	C (“C” indicates maximum degradation < 50%)
< 50	Cc1nc2cccc(NCCCCCCCCNC(=O)C34CC(COc5cc(-c6ccccc6O)nnc5N)(C3)C4)c2c(=O)n1C1CCC(=O)NC1=O (stereo not shown) [Compound 59, 3-(((3-amino-6-(2-hydroxyphenyl)pyridazin-4-yl)oxy)methyl)-N-(8-((3-(2,6-dioxopiperidin-3-yl)-2-methyl-4-oxo-3,4-dihydroquinazolin-5-yl)amino)octyl)bicyclo[1.1.1]pentane-1-carboxamide]	C (“C” indicates maximum degradation < 50%)
< 50	Nc1nnc(-c2ccccc2O)cc1OCC12CC(C(=O)NCCOCCOCCNc3cccc4c3CN(C3CCC(=O)NC3=O)C4=O)(C1)C2 (stereo not shown) [Compound 60, 3-(((3-amino-6-(2-hydroxyphenyl)pyridazin-4-yl)oxy)methyl)-N-(2-(2-(2-((2-(2,6-dioxopiperidin-3-yl)-1-oxoisoindolin-4-yl)amino)ethoxy)ethoxy)ethyl)bicyclo[1.1.1]pentane-1-carboxamide]	C (“C” indicates maximum degradation < 50%)
< 50	Cc1nc2cccc(NCCOCCOCCNC(=O)C34CC(COc5cc(-c6ccccc6O)nnc5N)(C3)C4)c2c(=O)n1C1CCC(=O)NC1=O (stereo not shown) [Compound 61, 3-(((3-amino-6-(2-hydroxyphenyl)pyridazin-4-yl)oxy)methyl)-N-(2-(2-(2-((3-(2,6-dioxopiperidin-3-yl)-2-methyl-4-oxo-3,4-dihydroquinazolin-5-yl)amino)ethoxy)ethoxy)ethyl)bicyclo[1.1.1]pentane-1-carboxamide]	C (“C” indicates maximum degradation < 50%)
< 50	Nc1nnc(-c2ccccc2O)cc1OCC12CC(C(=O)NCCCCNc3ccc4c(c3)C(=O)N(C3CCC(=O)NC3=O)C4=O)(C1)C2 (stereo not shown) [Compound 62, formic acid]	C (“C” indicates maximum degradation < 50%)
